Results from patent US20130324522A1, “INSECT ODORANT RECEPTOR ANTAGONISTS” (THE ROCKEFELLER UNIVERSITY, priority 2010, published 2013).
Like-named read-outs stand apart in the source and are kept apart here.

Assays:
OR1/OR7 = molecular target: T1, OR1/OR7 (Anopheles gambiae, UniProt Q7QCC7+Q8WTE7); test: Ca2+-imaging of stable HEK293T cell line OR1/OR7; assay type: cell-based
T1 construct: Full-length cDNAs for mosquito (Anopheles gambiae) odorant receptor (OR1, OR2, OR7, OR8, OR28); expressed in transfected cells
T1 sequence (Q8WTE7 1-417): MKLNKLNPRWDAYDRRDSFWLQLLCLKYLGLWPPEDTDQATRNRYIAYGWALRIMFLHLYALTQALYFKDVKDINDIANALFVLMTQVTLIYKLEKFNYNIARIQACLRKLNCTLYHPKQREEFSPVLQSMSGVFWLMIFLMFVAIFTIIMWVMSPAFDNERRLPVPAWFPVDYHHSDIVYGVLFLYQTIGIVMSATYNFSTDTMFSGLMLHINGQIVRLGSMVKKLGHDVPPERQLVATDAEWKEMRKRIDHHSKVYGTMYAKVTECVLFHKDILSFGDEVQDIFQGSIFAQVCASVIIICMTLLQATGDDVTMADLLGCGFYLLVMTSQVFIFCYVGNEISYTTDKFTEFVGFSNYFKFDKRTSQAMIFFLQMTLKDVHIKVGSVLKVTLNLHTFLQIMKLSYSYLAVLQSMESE
T1 sequence (Q7QCC7 1-478): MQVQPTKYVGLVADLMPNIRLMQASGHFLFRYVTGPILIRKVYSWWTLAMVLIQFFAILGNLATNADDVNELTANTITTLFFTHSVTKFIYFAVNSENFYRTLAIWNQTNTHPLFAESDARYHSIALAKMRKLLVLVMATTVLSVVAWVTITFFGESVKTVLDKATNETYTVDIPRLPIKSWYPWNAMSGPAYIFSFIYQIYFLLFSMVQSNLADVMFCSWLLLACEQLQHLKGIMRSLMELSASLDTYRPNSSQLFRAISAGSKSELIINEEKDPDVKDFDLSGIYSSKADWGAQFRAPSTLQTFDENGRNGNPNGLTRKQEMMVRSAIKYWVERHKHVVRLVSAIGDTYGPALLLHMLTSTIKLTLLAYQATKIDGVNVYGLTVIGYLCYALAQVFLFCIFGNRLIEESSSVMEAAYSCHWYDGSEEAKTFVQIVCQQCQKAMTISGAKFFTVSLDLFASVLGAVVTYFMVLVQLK
Procedure: (§1) Full-length cDNAs for mosquito (Anopheles gambiae) odorant receptor (OR1, OR2, OR7, OR8, OR28), and fly (Drosophila melanogaster) odorant receptor (Or47a, Or83b), mouse TRP channel (TRPM8), and mouse serotonin receptor (5HT3) were obtained and subcloned into mammalian expression vectors. The following mammalian expression vectors were used:
(§2) Stable cell lines OR1/OR7, OR2/OR7, OR8/OR7, OR10/OR7, OR28/OR7 and TRPM8 were generated from HEK293T cells. HEK293T-based cell lines were cultured in DMEM supplemented with these additional antibiotics: 6 μg/mL blasticidin and 1 μg/mL puromycin, with the exception of the TRPM8 cell lines, which was cultured in DMEM supplemented with 1 μg/mL puromycin.
(§3) Cells were trypsinized and split into 35 mm dishes one day before transfection. Confluent cells (60-70%) in 35 mm dishes were transfected with 1 μg of insect OR(X) plasmids in pME18s-bla and 1 μg of OR7-pME18s-puro using lipofectamine 2000. For Anopheles odorant receptors, two plasmids were co-transfected into HEK cells: the ligand-specific receptor (OR1, OR2, OR8, OR28) and the corresponding olfactory co-receptor: OR7. Cell lines containing TRPM8 were transfected with single plasmid.
(§4) Stable cell lines were cultured in 10 cm dishes, and confluent cells (70-80%) were trypsinized. 10,000 cells/20 μL were transferred into each well of 384-well plates coated with poly-D-lysine, and cultured for 2 days. For Flip-In T-Rex cells (cell lines expressing Or47a/Or83b and 5HT3), 5 μL of tetracycline (5 μg/mL) were added 1 day before the assay. 20 μL of Ca-4 dye was loaded into each well for 1.5 hr at room temperature in the dark, and the dye-loaded plates were subjected to Ca^2+-imaging using a Hamamatsu FDSS6000 real time fluorescence plate reader. Odorant solutions (9× final concentration) were prepared by dissolving 1M stock solutions into Hank's Buffered Salt Solution (HBSS), and 30 μL of odor solution was transferred to each well in 384-well plates.
(§5) Compounds ([…] in DMSO) were stored in 384-well plates, and last two columns (32 wells total) contained only DMSO. 200 nL of small compounds were transferred into the odorant plates before the assay using the Perkin-Elmer Janus workstation. The odorant plates were spun down to remove air bubbles, and placed on the FDSS6000 plate loader, and 5 μL of odorant solution was applied to the cell plate on the FDSS6000. Ca^2+ increase was monitored with fluorescence at 525 nm by excitation at 485 nm.

OR2/OR7 = molecular target: T2, OR2/OR7 (Anopheles gambiae, UniProt Q7QCC7+Q8WTE6); test: Ca2+-imaging of stable HEK293T cell line OR2/OR7; assay type: cell-based
T2 construct: Full-length cDNAs for mosquito (Anopheles gambiae) odorant receptor (OR1, OR2, OR7, OR8, OR28); expressed in transfected cells
T2 sequence (Q8WTE6 1-378): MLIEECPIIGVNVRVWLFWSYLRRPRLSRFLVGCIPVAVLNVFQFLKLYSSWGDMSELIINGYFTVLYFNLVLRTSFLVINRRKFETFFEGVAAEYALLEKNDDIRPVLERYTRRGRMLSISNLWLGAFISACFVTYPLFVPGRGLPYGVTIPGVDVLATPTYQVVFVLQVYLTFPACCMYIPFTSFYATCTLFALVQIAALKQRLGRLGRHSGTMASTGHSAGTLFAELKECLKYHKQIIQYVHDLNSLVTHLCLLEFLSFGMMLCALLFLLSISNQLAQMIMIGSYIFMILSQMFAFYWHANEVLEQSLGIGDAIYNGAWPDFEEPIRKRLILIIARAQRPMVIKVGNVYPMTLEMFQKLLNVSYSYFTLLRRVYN
T2 sequence (Q7QCC7 1-478): T1 sequence (Q7QCC7 1-478)
Procedure: as §1, §2, §3, §4, §5

OR28/OR7 = OR28/OR7 (Anopheles gambiae, UniProt A0A1S4GFY3+Q7QCC7); test: Ca2+-imaging of stable HEK293T cell line OR28/OR7; assay type: cell-based; details: for inhibition at 4 µM: HEK-293T, compound applied at 4 μM, read-out: Percent Inhibition OR28 OR7
OR28/OR7, sequence (A0A1S4GFY3 entry or part of it, one chain of several): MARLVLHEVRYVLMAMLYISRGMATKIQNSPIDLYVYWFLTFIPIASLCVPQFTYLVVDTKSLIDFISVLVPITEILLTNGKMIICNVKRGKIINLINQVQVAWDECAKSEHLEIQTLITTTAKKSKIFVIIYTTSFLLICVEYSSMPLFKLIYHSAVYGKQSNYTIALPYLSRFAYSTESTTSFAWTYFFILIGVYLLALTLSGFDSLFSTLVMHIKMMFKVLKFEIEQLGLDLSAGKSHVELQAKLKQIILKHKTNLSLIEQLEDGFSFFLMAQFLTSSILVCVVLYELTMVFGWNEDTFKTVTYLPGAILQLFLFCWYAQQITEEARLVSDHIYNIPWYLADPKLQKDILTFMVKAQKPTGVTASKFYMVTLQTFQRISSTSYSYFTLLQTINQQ
Procedure: as §1, §2, §3, §4, §5

[1] = system: ab5 neuron that expresses the Or47a/Or83b receptor; test: Single sensillum recordings of fly olfactory neurons; assay type: in vivo, Drosophila melanogaster
Procedure: Female flies (Drosophila melanogaster) of the w^1118 genotype were immobilized by inserting single adult flies into the wide end of a 200 μL pipette tip, and mounting this on a microscope cover glass with a piece of wax. Antennal olfactory neurons of immobilized flies were subjected to extracellular recording using a Syntech 10x AC probe connected to a Syntech IDAC4 amplifier. The recording electrode was inserted into the ab5 sensillum, which contains two olfactory sensory neurons (OSNs), and the reference electrode was placed into the eye. Action potentials in the OSNs induced by odorant stimulation were recorded. 15 μL of odorant [3-methyl-thio-1-propanol; diluted (v/v) in paraffin oil (10^−5 to 10^−3 dilution)], was applied to a filter strip, and 10 μL of test compounds, DEET, or solvent (100% ethanol) was applied on a second filter strip. Both filter strips were placed into a Pasteur glass pipette connected to the Syntech CS55 stimulus device, and applied to the fly antenna for 1 sec. Corrected spike increases were computed by subtracting the average spontaneous activity in 1 sec before odorant stimulus from the average activity during the stimulus.
The effect of selected compounds on odor-evoked action potentials was measured from the ab5 antennal sensillum, which houses the olfactory neuron that expresses the Or47a/Or83b receptor.

[2] = ligand acetophenone 300 μM, read-out: IC50 OR28 OR7
[3] = ligand 4-methyl phenol 30 μM, read-out: IC50 OR1 OR7
[4] = ligand 2-methyl phenol 30 μM, read-out: IC50 OR2 OR7

Row | SMILES | IC50 (OR1/OR7; [3]) [nM] | IC50 (OR2/OR7; [4]) [nM] | IC50 (OR28/OR7) [nM] | inhibition at 4 µM (OR28/OR7) [%] | IC50 (OR28/OR7; Table B, read-out: IC50 OR28) [nM] | also measured
1 | CCN(CC)C(=O)c1cccc(C)c1 [DEET, N,N-diethyl-m-toluamide, reference compound] | – | – | – | – | – | IC50 (OR1/OR7): > 740000 nM; IC50 (OR2/OR7): > 20000 nM; IC50 (OR28/OR7; [2]): > 50000 nM
2 | CCNc1nc(NCC)nc(SC)n1 [RU-T4] | 2000 to 20000 | 20000 to 50000 | > 20000 | – | – | –
3 | CCNc1nc(NC(C)C)nc(SC)n1 [RU-T3] | – | – | 2000 to 20000 | – | – | IC50 (OR1/OR7): > 220000 nM; IC50 (OR2/OR7): 2000 to 20000 nM
4 | Cc1nc(NC(C)C)nc(NC(C)C)n1 [RU-T6] | 2000 to 20000 | > 20000 | 20000 to 50000 | – | – | –
5 | CSc1nc(NC(C)C)nc(NC(C)C)n1 [RU-T2] | – | – | 2000 to 20000 | – | – | IC50 (OR1/OR7): 2000 to 20000 nM; IC50 (OR2/OR7): 2000 to 20000 nM
6 | CN(Cc1nccn1Cc1c(F)cccc1Cl)C(=O)C1CCCC1 [RU-I5] | < 2000 | < 2000 | – | – | – | IC50 (OR28/OR7; [2]): 2000 to 20000 nM; suppression of 3-methyl-thio-1-propanol (3MTP)-evoked action potentials in the ab5 neuron ([1]; 10 mg dose on a filter paper): inhibits responses elicited by 10^−3 to 5×10^−5 dilutions of 3MTP
7 | CC(C)Nc1nc(Cl)nc(NCc2ccccc2)n1 [RU-T9] | < 2000 | > 20000 | > 50000 | – | – | –
8 | CCNc1nc(Cl)nc(NC(C)C)n1 [RU-T5] | – | – | > 20000 | – | – | IC50 (OR1/OR7): < 2000 nM; IC50 (OR2/OR7): < 2000 nM
9 | Fc1cccc(Cl)c1Cn1ccnc1CN(CC1CCCC1)C1CC1 [RU-I4] | < 2000 | 2000 to 20000 | – | – | – | IC50 (OR28/OR7; [2]): 2000 to 20000 nM
10 | CC(C)Nc1nc(Cl)nc(NC(C)C)n1 [RU-T1] | < 2000 | < 2000 | > 220000 | – | – | –
11 | CC(C)Nc1nc(NC(C)C)nc(C(F)(F)F)n1 [RU-T8] | < 2000 | < 2000 | > 20000 | – | – | –
12 | C=CCN(Cc1nccn1Cc1cccc(F)c1)C(=O)c1ccccc1F [RU-I1] | < 2000 | < 2000 | – | – | – | IC50 (OR28/OR7; [2]): 20000 to 50000 nM; suppression of 3-methyl-thio-1-propanol (3MTP)-evoked action potentials in the ab5 neuron ([1]; 3.5 mg dose on a filter paper): inhibits responses elicited by 5×10^−4 to 10^−5 dilutions of 3MTP; suppression of 3-methyl-thio-1-propanol (3MTP)-evoked action potentials in the ab5 neuron ([1]; 10 mg dose on a filter paper): inhibits responses elicited by 10^−3 to 10^−5 dilutions of 3MTP
13 | CC(C)Nc1nc(Cl)nc(N(C)C(C)C)n1 [RU-T7] | < 2000 | < 2000 | > 20000 | – | – | –
14 | O=C(c1nccn1Cc1c(F)cccc1Cl)N(CC1CCCC1)C1CC1 [RU-I3] | < 2000 | 2000 to 20000 | – | – | – | IC50 (OR28/OR7; [2]): < 2000 nM
15 | COc1cccc(NC(=O)CCC2CCN(C(=O)CSc3ccccc3)CC2)c1 [RU-0032474] | – | – | – | 51 to 74 | < 100 | –
16 | Cc1cccc(NC(=O)CCC2CCN(C(=O)CCOc3ccccc3)CC2)c1 [RU-0030324] | – | – | – | > 75 | < 100 | –
17 | COCCN(Cc1c(-c2ccccc2)noc1N(C)C1CCCCC1)C(=O)c1ccccc1OC [RU-0037275] | – | – | – | > 75 | < 100 | –
18 | COc1ccc(-c2cc(-c3ccccc3)n(C(=O)CN3CCN(Cc4ccccc4)CC3)n2)cc1 [RU-0038795] | – | – | – | > 75 | < 100 | –
19 | O=C(C1CCCC1)N(Cc1nccn1CCc1c(F)cccc1Cl)C1CC1 [RU-I2] | < 2000 | < 2000 | – | – | – | IC50 (OR28/OR7; [2]): 2000 to 20000 nM; suppression of 3-methyl-thio-1-propanol (3MTP)-evoked action potentials in the ab5 neuron ([1]; 3.5 mg dose on a filter paper): inhibits responses elicited by 10^−4 to 10^−5 dilutions of 3MTP; suppression of 3-methyl-thio-1-propanol (3MTP)-evoked action potentials in the ab5 neuron ([1]; 10 mg dose on a filter paper): inhibits responses elicited by 10^−3 to 10^−5 dilutions of 3MTP
20 | O=C(c1ccco1)N(Cc1ccco1)Cc1nccn1Cc1ccccc1F [RU-0047694] | – | – | – | > 75 | < 100 | –
21 | CCOC(=O)CCC(=O)N(CCc1ccccc1)CC(=O)Nc1cc(C(C)(C)C)nn1-c1ccccc1C [RU-0072462] | – | – | – | > 75 | < 100 | –
22 | CCCCCCCC(=O)N1CCCC(C(=O)NC2CCCC[C@H]2NC(=O)c2ccccc2C)C1 (stereo partly drawn) [RU-0045756] | – | – | – | 51 to 74 | > 1000 | –
23 | C=CCN(Cc1nccn1Cc1ccc(Cl)c(Cl)c1)C(=O)c1ccccc1F [RU-0047955] | – | – | – | > 75 | < 100 | –
